Calls of active or inactive are those of the source. The rule behind the calls is not given here.
target: Serine/threonine-protein phosphatase PP1-alpha catalytic subunit (Homo sapiens) (UniProt P62136); assay: inhibition of PP1alpha catalytic activity – biochemical, OMFP substrate, fluorescence, late-stage follow-up (AID 652109); conditions: PP1 dephosphorylation of OMFP, at 6.7 µM, active compounds read high
Sequence (P62136 whole entry, looked up): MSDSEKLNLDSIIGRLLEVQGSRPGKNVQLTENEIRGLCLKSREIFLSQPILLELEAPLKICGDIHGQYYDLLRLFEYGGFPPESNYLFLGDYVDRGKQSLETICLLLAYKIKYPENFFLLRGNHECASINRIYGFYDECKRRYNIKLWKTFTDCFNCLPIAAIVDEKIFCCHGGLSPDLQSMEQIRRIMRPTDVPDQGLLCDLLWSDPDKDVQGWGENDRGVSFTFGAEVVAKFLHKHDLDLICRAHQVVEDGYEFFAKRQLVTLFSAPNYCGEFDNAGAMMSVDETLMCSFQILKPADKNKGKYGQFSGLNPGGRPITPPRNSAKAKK

Row | SMILES | inhibition
1 | c1ccc(Nc2nc(-c3ccccn3)cs2)cc1 | 63.7%
2 | COc1ccc(Sc2nc(-c3ccccn3)ncc2OC)cc1 | 71.2%
3 | CCOC(=O)c1cnc(-n2nc(C)cc2C)nc1NC1CCCCC1 | 57.6%
4 | Cc1nnc(NC(=O)C2C3C=CC(O3)C2C(=O)O)s1 (centres undefined) | 8.42% (inactive)
5 | Clc1ccc(-n2nnnc2-c2cnc(-c3ccccn3)nc2-c2cccs2)cc1 | 67.4%
6 | O=c1[nH]c(Nc2ccccc2)cc2ccccc12 | 9.24% (inactive)
7 | COc1cnc(-c2ccccn2)nc1Oc1cccc(C(F)(F)F)c1 | -4.5% (inactive)
8 | COc1cnc(-c2ccccn2)nc1Sc1ccccc1Cl | 68.5%
9 | O=C(O)c1cc(-c2ccc(Cl)c(Cl)c2)n(-c2ccc(F)cc2)n1 | 57.1%
10 | COc1ccc(OCCCC(=O)Nc2nc(-c3ccccn3)cs2)cc1 | 33.3%
11 | Cc1ccc(C(=O)NNc2cc(N3CCCC3)nc(N3CCCC3)n2)cc1 | 3.05% (inactive)
12 | COc1ccccc1Sc1nc(-c2ccccn2)ncc1OC | 65.9%
13 | COc1ccc(NC(=O)C2C3CCC(O3)C2C(=O)O)c(OC)c1 (centres undefined) | 34.9%
14 | Nc1nc(-c2ccccn2)nc(N)c1Cc1ccc(Cl)cc1Cl | 65.9%
15 | CCOC(=O)c1cnc(-n2cc(C)cn2)nc1NCc1ccc2c(c1)OCO2 | 12.9% (inactive)
16 | CCCCn1c(NC(=O)c2ccco2)c(C(=O)OCC)c2nc3ccccc3nc21 | -4% (inactive)
17 | COc1cnc(-c2ccccn2)nc1Sc1ccccc1 | 60.7%
18 | Nc1cc2nsnc2cc1Br | -4.44% (inactive)
19 | CCn1c2ccccc2c2cc(NC(=O)COC(=O)c3ccc(NC(=O)CC#N)cc3)ccc21 | 47.2%
20 | Cc1[nH]n(-c2ccccc2)c(=O)c1C(c1ccc([N+](=O)[O-])cc1)c1c(C)[nH]n(-c2ccccc2)c1=O | -0.696% (inactive)
21 | COc1ccc2c(Cl)c(C(=O)N/N=C/c3ccc4c(c3)OCO4)sc2c1 | 23% (inactive)
22 | CN1CCN(C(c2ccccn2)c2cc(Cl)c3cccnc3c2O)CC1 (centres undefined) | 74%

Row | SMILES | inhibition
23 | CC(=O)C(C(C)=O)C1(O)C(=O)c2ccccc2C1=O | 0.756% (inactive)
24 | CCCN(CC1CC1)c1nc(N)c2c(N)nc(OC)cc2c1C#N | 3.83% (inactive)
25 | COc1ccc(NC(=S)Nc2ccc3nsnc3c2)cc1 | 2.7% (inactive)
26 | COc1ccc(CN2C(=O)Cc3c2nc(N)c2c(N)nc(N4CCCCC4)c(C#N)c32)cc1 | 6.16% (inactive)
27 | O=C(NC1(O)C(=O)c2ccccc2C1=O)c1ccc(C(F)(F)F)cc1 | 6.8% (inactive)
28 | CCOC(=O)c1sc2nc3c(SCC(=O)O)cc(C(=O)c4cc(F)ccc4O)cn3c(=O)c2c1C | 67.8%
29 | COc1ccc(Cn2c(N)c(C(=O)NCc3ccco3)c3nc4ccccc4nc32)cc1OC | 3.29% (inactive)
30 | O=C(O)C1C2CCC(O2)C1C(=O)NC1CCCCC1 (centres undefined) | 25% (inactive)
31 | Cc1cc(C)c(S(=O)(=O)/N=C2\C=C(Sc3ncn[nH]3)C(=O)c3ccccc32)cc1C | 5.9% (inactive)
32 | CCOC(=O)c1cnc(-n2nc(C)cc2C)nc1NC(C)c1ccccc1 (centres undefined) | 68.8%
33 | CC(C)(CS(=O)(=O)[O-])NC(=O)CC[N+](C)(C)CCO | 49.4%
34 | c1ccc(-c2nccc(-c3ccc(-n4cnc5ccccc54)cc3)n2)nc1 | 62.4%
35 | CCCCN(CC)c1nc(N)c2c(N)nc(OCC)cc2c1C#N | 3.48% (inactive)
36 | CCOc1ccc(NC(=S)Nc2ccc3nsnc3c2)cc1 | 4.8% (inactive)
37 | CCOC(=O)c1nn(-c2ccc(C)cc2)c(=O)c2c(N)scc12 | 6.08% (inactive)
38 | COc1cnc(-c2ccccn2)nc1Sc1ccc(F)cc1 | 52.5%
39 | CCOC(=O)C1=C(C)OC2(O)c3ccccc3C(=O)C12O (centres undefined) | 18.6% (inactive)
40 | Oc1cccc(/C=N/Nc2cc(N3CCCC3)nc(N3CCCC3)n2)c1 | 23.5% (inactive)
41 | CCOC(=O)c1sc(N2C(=O)C(O)=C(C(=O)c3ccco3)C2c2cccc([N+](=O)[O-])c2)nc1C (centres undefined) | 32.7%
42 | COc1cnc(-c2ccccn2)nc1Sc1cccc(Cl)c1 | 67.6%
43 | COc1ccc(Cl)cc1C(=O)Nc1cccc(-c2ccc3nncn3n2)c1 | 60.4%
44 | COc1ccc(C(=O)c2nccc3cc(OC)c(OC)cc23)cc1OC | 0.984% (inactive)

Row | SMILES | inhibition
45 | O=C1CCCC2=C1C1(O)C(=O)c3ccccc3C1(O)O2 (centres undefined) | 3.09% (inactive)
46 | N#Cc1c(-c2ccc(Cl)cc2)cc(-c2cccs2)nc1SCC(=O)O | 46.6%
47 | CCOC(=O)c1cnc(-n2nc(C)cc2C)nc1NCc1ccccc1 | 58.3%
48 | COc1cc(Br)c(C(=O)c2nccc3cc(OC)c(OC)cc23)cc1OC | -4.95% (inactive)
49 | COc1cnc(-c2ccccn2)nc1Oc1cccc(Cl)c1 | 49.5%
50 | Oc1ccccc1/C=N/Nc1cc(N2CCCC2)nc(N2CCCC2)n1 | 4.78% (inactive)
51 | O=C(NC1(O)C(=O)c2ccccc2C1=O)c1c(Cl)cccc1Cl | 0.361% (inactive)
52 | O=C(NC1(O)C(=O)c2ccccc2C1=O)c1ccccc1 | -2.88% (inactive)
53 | COc1cnc(-c2ccccn2)nc1Sc1ccc(Cl)cc1 | 53.2%
54 | O=C(O)c1cc(-c2ccc(Cl)c(Cl)c2)n(-c2ccccc2)n1 | 60.5%
55 | Cc1ccc(-n2nc(C(=O)O)cc2-c2ccc(Cl)cc2)cc1 | 56%
56 | CCOC(=O)c1cnc(-n2nc(C)cc2C)nc1NCCc1ccccc1 | 65.2%
57 | O=C1Nc2ccccc2N2CCCC12 (centres undefined) | -0.206% (inactive)
58 | O=C(O)c1cc(-c2ccc(Cl)cc2)n(-c2cccc(Cl)c2)n1 | 57.5%
59 | N#Cc1c(N2CCCC(O)C2)nc(N)c2c(N)nc3c(c12)CC(=O)N3C12CC3CC(CC(C3)C1)C2 (centres undefined) | 8.91% (inactive)
60 | COc1cnc(-c2ccccn2)nc1Sc1ccc(C)cc1 | 65.8%
61 | O=C(Nc1nc(-c2ccccn2)cs1)C1CC(=O)N(c2ccc3c(c2)OCCO3)C1 (centres undefined) | 49.4%
62 | Cc1ccc(C(=O)NC2(O)C(=O)c3ccccc3C2=O)cc1C | -0.875% (inactive)
63 | Oc1ccc(/C=N/Nc2cc(N3CCOCC3)nc(N3CCOCC3)n2)c(O)c1 | 5.24% (inactive)
64 | O=S(=O)(Cc1cc(NCc2ccccc2)nc(-c2ccccn2)n1)c1ccccc1 | 44.6%

Reference: PubChem BioAssay AID652109 (The Scripps Research Institute Molecular Screening Center, 2013)
